Entries after “also recorded” stand apart in the source; their conditions may differ.
Columns and labels:
T84 monolayers [1] = assay: Trans-epithelial electrical resistance (TER) of T84 monolayers; type: cell-based, human
Excerpt: (§1) To determine whether this form of cell extrusion results in loss of barrier function, we measured the trans-epithelial electrical resistance (TER). […] Given that the breach in the T84 monolayers appeared to be 1-2 μm in diameter on TEM images, we evaluated the epithelial integrity to microparticles (1 μm Fluoresbrite® Microspheres) and microbes (E. coli […]) using the lowest dose of nigericin treatment. […] Fluoresbrite microspheres and E. coli TMW2.497 were recovered in the media from basolateral well.
T84 human colon cancer epithelial cells were maintained in tissue culture plates (10 cm) in Dulbecco's minimal essential medium (DMEM)/F-12, 10% (v/v) heat-inactivated fetal bovine serum (FBS), 1%(w/v) penicillin-streptomycin. The cells were plated onto Transwells (2×10^5 cells/well, 6.5 mm diameter; 0.4 μm-pore size; Corning Life Sciences, Tewksbury, Mass.) and grown until development of apical junctional complexes (as indicated by a transepithelial resistance of >2,000 Ω·cm^2) for studies. For caspase-1 inhibition experiment, prior to nigericin treatment, the tissue culture medium was removed and fresh medium with 50 µM caspase-1 inhibitor (Ac-YVAD-CMK) was introduced. Nigericin (10, 25, 50 µM) was added to both the apical and basolateral aspect of the Transwell. […] For microspheres and […] experiments, after overnight incubation with nigericin, 10^7/ml of 1 μm Microspheres or 10^9/ml E. coli TMW2.497 were added to the apical aspect of Transwell. One hour after incubation with the microspheres or E. coli, the cells were fixed in cold methanol for 5 minutes. Cells were then permeabilized in 0.2%(v/v) Triton X-100 for 15 min and blocked for one hour in PBS with 0.2% (v/v) goat serum and 1%(w/v) BSA.

IL-10 KO mice [2] = assay: IEC extrusion measured as epithelial gap density by confocal endomicroscopy in IL-10 KO mice; type: in vivo, mouse; conditions: 10 mg/kg intraperitoneal, 4, 7 and 10 days
Method: (§2) To evaluate the effect of caspase-1 inhibition on IEC extrusion over time in vivo, we treated the IL-10 KO mice with a selective caspase-1 inhibitor Ac-YVAD-CMK (10 mg/kg) over 4, 7 and 10 day (5 times the mean lifespan of rodent)enterocytes^40) via intraperitoneal injections. The control IL-10 KO group received 10 days of equal volume of 2% (v/v) DMSO.
Confocal laser endomicroscopy of the mouse ileum and confocal microscopy of whole mount mouse intestinal tissues for determination of epithelial gap density were performed using previously described methods. Cell culture, human and mouse intestinal slides were imaged using a spinning disc confocal microscope (Quorum Technologies Inc, Guelph, ON) using previously described methods.

IL-10 KO mice [3] = assay: Permeation of orogavaged 0.5 μm microspheres into blood of IL-10 KO mice; type: in vivo, mouse; conditions: 10 mg/kg, day 7
Method: as §2
For microsphere studies, mice were gavaged with a mixture containing 10^7 Fluoresbrite® YG Microspheres with diameter of 0.5, 1.0, 2.0, 3.0, and 6.0 μm in 200 μl solution as previously described after an overnight fast. Blood samples were collected 4 hours post-administration of the beads. Whole blood mixture was then centrifuged at 1,250×g in pre-heparinized tubes for 10 min at RT, the plasma portion of the samples were removed and centrifuged at 1,250×g for 5 min before flow cytometry analysis. The remaining buffy coat and hematocrit of the samples were lysed with 5 mL of lysing buffer (4.15 g NH4Cl, 0.84 g NaHCO3, 1 ml […] EDTA at pH 8, and 500 mL of ddH2O) at RT, mixed and centrifuged at 1,250×g for 5 min at 4° C.×3. The supernatant was discarded. The WBC pellet was re-suspended in 400 μl of 0.03% PBS with Fetal Bovine Albumin. The plasma and WBC pellet samples were analyzed with flow cytometry for determination of microsphere counts.

T84 monolayers [4] = assay: Movement of microspheres and E. coli across the T84 monolayer in Transwell; type: cell-based, human; conditions: nigericin 10 μM overnight (lowest dose)
Excerpt: as §1
T84 human colon cancer epithelial cells were maintained in tissue culture plates (10 cm) in Dulbecco's minimal essential medium (DMEM)/F-12, 10% (v/v) heat-inactivated fetal bovine serum (FBS), 1%(w/v) penicillin-streptomycin. The cells were plated onto Transwells (2×10^5 cells/well, 6.5 mm diameter; 0.4 μm-pore size; Corning Life Sciences, Tewksbury, Mass.) and grown until development of apical junctional complexes (as indicated by a transepithelial resistance of >2,000 Ω·cm^2) for studies. For caspase-1 inhibition experiment, prior to nigericin treatment, the tissue culture medium was removed and fresh medium with 50 µM caspase-1 inhibitor (Ac-YVAD-CMK) was introduced. […] Transepithelial resistance (TER) was measured at before and 3 h after Nigericin treatment, using a Millicell-ERS Voltmeter and chopstick electrodes (Millipore, Bedford, Mass.). […]

polarized T84 monolayers = assay: Caspase-1 activation and cell extrusion in nigericin-treated polarized T84 monolayers (FLICA 1 staining, Western blot); type: cell-based, human
Excerpt: To investigate the morphology of caspase-1-induced IEC extrusion, we applied nigericin, a well-established Nlrp3-dependent inflammasome activator to polarized T84 monolayers. […] Active caspase-1 expression in nigericin-treated T84 cells was confirmed by Western blot analysis (FIG. 1b).
T84 human colon cancer epithelial cells were maintained in tissue culture plates (10 cm) in Dulbecco's minimal essential medium (DMEM)/F-12, 10% (v/v) heat-inactivated fetal bovine serum (FBS), 1%(w/v) penicillin-streptomycin. The cells were plated onto Transwells (2×10^5 cells/well, 6.5 mm diameter; 0.4 μm-pore size; Corning Life Sciences, Tewksbury, Mass.) and grown until development of apical junctional complexes (as indicated by a transepithelial resistance of >2,000 Ω·cm^2) for studies. For caspase-1 inhibition experiment, prior to nigericin treatment, the tissue culture medium was removed and fresh medium with 50 µM caspase-1 inhibitor (Ac-YVAD-CMK) was introduced. Nigericin (10, 25, 50 µM) was added to both the apical and basolateral aspect of the Transwell. Transepithelial resistance (TER) was measured at before and 3 h after Nigericin treatment, using a Millicell-ERS Voltmeter and chopstick electrodes (Millipore, Bedford, Mass.). […]

[5] = in vivo; cited from earlier work

Compound | reversal of nigericin-induced TER reduction measured by ECIS (T84 monolayers [1]; nigericin 25 μM, overnight) | reversal of nigericin-induced TER reduction / barrier dysfunction (T84 monolayers [1]; pre-treatment with caspase-1 inhibitor, nigericin 25 μM, 3 hours and overnight) | IEC extrusion as epithelial gap density (IL-10 KO mice [2]) | permeation of orogavaged 0.5 μm latex microspheres into blood (IL-10 KO mice [3]) | TER of T84 monolayers (barrier function) (T84 monolayers [1]; nigericin 10, 25, 50 μM, 3 h) | TER as measured by ECIS over time (T84 monolayers [1]; nigericin, overnight) | movement of 1 μm microspheres and E. coli TMW2.497 across the monolayer (T84 monolayers [4]) | active caspase-1 (p10) expression by Western blot (polarized T84 monolayers; nigericin 50 μM, T84 cells) | activated caspase-1 and cell extrusion by FLICA 1 staining (polarized T84 monolayers; nigericin, 3-hours post-treatment) | systemic toxicity [5]
Ac-YVAD-CMK | reversed | reversed; also recorded: abrogated | Time-dependent reduction in IEC extrusion | normalization of permeation | – | – | – | – | – | –
CO[C@@H]1C[C@@H](C[C@H]2CC[C@H](C)[C@H]([C@@H](C)C(=O)O)O2)O[C@]2(O[C@](C)([C@H]3CC[C@@](C)([C@@H]4O[C@@H]([C@H]5O[C@@](O)(CO)[C@H](C)C[C@@H]5C)C[C@@H]4C)O3)C[C@H]2C)[C@@H]1C [nigericin, Nigericin] | – | – | – | – | dose-dependent reduction in TER; also recorded: dose-dependent barrier dysfunction developed | time-dependent reduction in TER | Movements of microspheres and E. coli from the upper chamber through the monolayer to the lower chamber of the Transwell were observed | increased active caspase-1 (p10) expression | increased activated caspase-1 and cell extrusion | significant systemic toxicity
